The text below walks through data of the NIST ThermoML archive (doi:10.1016/j.jct.2005.05.020).

Numbers after ± are expanded uncertainties.

For the series the following is noted: 101.33 kPa, Liquid.

As to `CCCCCCC` [heptane], the mass density is 700.67 ± 0.62 kg/m3 (273.15 K); 696.57 ± 0.62 kg/m3 (278.15 K); 692.4 ± 0.63 kg/m3 (283.15 K); 688.2 ± 0.64 kg/m3 (288.15 K); 683.99 ± 0.64 kg/m3 (293.15 K); 679.75 ± 0.65 kg/m3 (298.15 K). In addition, the mass density (303.15 K) is reported as 675.49 ± 0.66 kg/m3; the mass density (308.15 K) came out at 671.19 ± 0.66 kg/m3; the mass density (313.15 K) is on record as 666.87 ± 0.67 kg/m3; the mass density (318.15 K) is recorded as 662.52 ± 0.68 kg/m3; the mass density (323.15 K) was 658.13 ± 0.68 kg/m3; the mass density (328.15 K) was found to be 653.71 ± 0.69 kg/m3. In addition, the mass density by setting is: (333.15 K) 649.24 ± 0.7 kg/m3; (338.15 K) 644.74 ± 0.71 kg/m3; (343.15 K) 640.19 ± 0.71 kg/m3; (348.15 K) 635.6 ± 0.72 kg/m3; (353.15 K) 630.95 ± 0.73 kg/m3; (358.15 K) 626.26 ± 0.74 kg/m3.
Take `CCCCCC` [hexane]: the mass density by setting is: (273.15 K) 677.18 ± 0.66 kg/m3; (278.15 K) 672.79 ± 0.67 kg/m3; (283.15 K) 668.37 ± 0.67 kg/m3; (288.15 K) 663.91 ± 0.68 kg/m3; (293.15 K) 659.42 ± 0.69 kg/m3; (298.15 K) 654.89 ± 0.69 kg/m3. For the same compound, the mass density by setting is: (303.15 K) 650.33 ± 0.7 kg/m3; (308.15 K) 645.73 ± 0.71 kg/m3; (313.15 K) 641.08 ± 0.72 kg/m3; (318.15 K) 636.38 ± 0.72 kg/m3; (323.15 K) 631.64 ± 0.73 kg/m3; (328.15 K) 626.84 ± 0.74 kg/m3. Besides, the mass density (333.15 K) is listed as 621.99 ± 0.75 kg/m3 and the mass density (338.15 K) was found to be 617.07 ± 0.75 kg/m3.
Consider `CCCCC` [pentane], for which the mass density was found to be 645.5 ± 0.72 kg/m3 (273.15 K); 640.7 ± 0.72 kg/m3 (278.15 K); 635.9 ± 0.73 kg/m3 (283.15 K); 631.04 ± 0.74 kg/m3 (288.15 K); 626.12 ± 0.74 kg/m3 (293.15 K); 621.14 ± 0.75 kg/m3 (298.15 K). The mass density (303.15 K) was determined as 616.11 ± 0.76 kg/m3 and the mass density (308.15 K) stood at 611.01 ± 0.77 kg/m3.

Broadly, the mass density is the mass of a sample divided by its volume.
